Measured values from patent publication US8242145B2, “Cyclic diaryl ether compounds as antagonists of prostaglandin D2 receptors” (Panmira Pharmaceuticals, LLC, priority 2008, dated 2012).

Tests used:
human DP2 receptor = target: T1, human DP2 receptor (Homo sapiens, UniProt Q9Y5Y4); assay: DP2/CRTH2 radioligand binding assay using [3H]PGD2; conditions: hDP2 (CRTH2) binding assay
T1 construct: expressed in transfected cells
T1 sequence (Q9Y5Y4 1-395): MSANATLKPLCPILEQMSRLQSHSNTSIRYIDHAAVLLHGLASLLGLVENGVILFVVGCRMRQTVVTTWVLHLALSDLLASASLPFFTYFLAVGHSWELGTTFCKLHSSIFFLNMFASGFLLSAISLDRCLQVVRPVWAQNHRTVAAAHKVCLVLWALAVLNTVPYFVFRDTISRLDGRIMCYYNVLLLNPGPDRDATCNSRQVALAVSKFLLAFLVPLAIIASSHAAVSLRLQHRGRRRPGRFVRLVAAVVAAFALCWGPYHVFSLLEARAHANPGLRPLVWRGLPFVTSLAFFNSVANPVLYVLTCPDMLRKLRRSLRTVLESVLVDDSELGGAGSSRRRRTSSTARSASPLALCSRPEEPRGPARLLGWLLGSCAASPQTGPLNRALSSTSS
Procedure: The ability of a compound to bind to the human DP2 receptor is assessed via a radioligand binding assay using [^3H]PGD2. HEK293 cells stably expressing recombinant human DP2 are resuspended in 10 mM Hepes, 7.4 containing 1 mM DTT, lysed and centrifuged at 75,000×g to pellet the membranes. The membranes are resuspended in 10 mM Hepes, 7.4 containing 1 mM DTT and 10% glycerol to approximately 5 mg protein/ml. Membranes (2-10 μg protein/well) are incubated in 96-well plates with 1 nM [^3H]PGD2 and test compound in Assay Buffer (50 mM Hepes, 10 mM MnCl2, 1 mM EDTA, plus or minus 0.2% human serum albumin, pH 7.4) for 60 minutes at room temperature. The reactions are terminated by rapid filtration through Whatman GF/C glass fibre filter plates. The filter plates were pre-soaked in 0.33% polythylenimine for 30 minutes at room temperature then washed in Wash Buffer (50 mM Hepes, 0.5 M NaCl pH 7.4) prior to harvesting. After harvesting, the filter plates are washed 3 times with 1 ml cold Wash Buffer then dried. Scintillant is then added to the plates and the radioactivity retained on the filters is determined on a Packard TopCount (Perkin Elmer). Specific binding is determined as total radioactive binding minus non-specific binding in the presence of 10 μM PGD2. IC50s were determined using GraphPad prism analysis of drug titration curves.

human DP1 receptor = target: T2, human DP1 receptor (Homo sapiens, UniProt Q13258); assay: DP1 radioligand binding assay using [3H]BWA868C; conditions: hDP1 binding
T2 construct: tissue Biological Specialty Corporation; host or cells: human platelets, membranes
T2 sequence (Q13258 1-359): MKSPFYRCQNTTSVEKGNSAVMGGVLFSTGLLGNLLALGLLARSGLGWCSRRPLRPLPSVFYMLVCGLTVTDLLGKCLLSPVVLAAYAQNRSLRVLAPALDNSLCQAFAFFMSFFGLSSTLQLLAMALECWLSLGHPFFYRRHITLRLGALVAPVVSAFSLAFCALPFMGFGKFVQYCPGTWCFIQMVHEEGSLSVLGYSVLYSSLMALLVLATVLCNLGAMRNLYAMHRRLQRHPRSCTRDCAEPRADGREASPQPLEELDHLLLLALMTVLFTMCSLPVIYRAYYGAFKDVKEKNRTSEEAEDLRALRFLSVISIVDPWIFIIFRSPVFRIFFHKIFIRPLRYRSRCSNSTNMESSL
Procedure: The ability of a compound to bind to the human DP1 receptor was evaluated via a radioligand membrane binding assay using the DP1 selective synthetic ligand [^3H]BW A868C. Packed human platelets (Biological Specialty Corporation), were resuspended in 6 volumes of Hepes/HBSS buffer (10 mM Hepes, 1 mM DTT in Hanks Balanced Salt Solution (HBSS)), lysed and centrifuged at 75,000×g to pellet the membranes. Membranes were resuspended in Hepes/HBSS buffer to approximately 12 mg protein/ml. Membranes (20 μg protein/well) are incubated in 96-well plates with 2 nM [^3H]BWA868C and test compound in Assay Buffer (50 mM Hepes, 10 mM MnCl2, 1 mM EDTA, plus or minus 0.2% human serum albumin, pH 7.4) for 60 minutes at room temperature. The reactions are terminated by rapid filtration through Whatman GF/C glass fibre filter plates. The filter plates were pre-soaked in 0.33% polethylenimine for 30 minutes at room temperature then washed in Wash Buffer (50 mM Hepes, 0.5 M NaCl pH 7.4) prior to harvesting. After harvesting, the filter plates are washed 3 times with 1 ml cold Wash Buffer then dried. Scintillant is then added to the plates and the radioactivity retained on the filters is determined on a Packard TopCount (Perkin Elmer). Specific binding is determined as total radioactive binding minus non-specific binding in the presence of 10 μM BW A868C. IC50s were determined using GraphPad prism analysis of drug titration curves.

Structure (SMILES) | IC50 (human DP2 receptor) | IC50 (human DP1 receptor)
CC(C)(C(=O)O)c1cccc(Oc2ccc(C(F)(F)F)cc2CN2CCOC2=O)c1 [Compound 1-11, 2-Methyl-2-{3-[2-(2-oxo-oxazolidin-3-ylmethyl)-4-trifluoromethyl-phenoxy]-phenyl}-propionic acid] | > 1000 nM | > 1000 nM
COc1ccc(CC(=O)O)cc1Oc1ccc(-c2ccccc2S(C)(=O)=O)cc1CN1CCOC1=O [Compound 1-94, {3-[2′-Methanesulfonyl-3-(2-oxo-oxazolidin-3-ylmethyl)-biphenyl-4-yloxy]-4-methoxy-phenyl}-acetic acid] | < 300 nM | > 1000 nM
C[C@H]1[C@@H](c2ccccc2)OC(=O)N1Cc1cc(-c2ccc(N)cn2)ccc1Oc1cccc(CC(=O)O)c1 [Compound 1-69, {3-[4-(5-Amino-pyridin-2-yl)-2-((4S,5R)-4-methyl-2-oxo-5-phenyl-oxazolidin-3-ylmethyl)-phenoxy]-phenyl}-acetic acid] | < 300 nM | < 300 nM
O=C(O)Cc1cccc(Oc2ccc(F)cc2CN2CCOC2=O)c1 [Compound 1-2, {3-[4-Fluoro-2-(2-oxo-oxazolidin-3-ylmethyl)-phenoxy]-phenyl}-acetic acid] | > 1000 nM | > 1000 nM
Cc1ncc(-c2ccc(Oc3cccc(CC(=O)O)c3)c(CN3C(=O)O[C@H](c4ccccc4)[C@@H]3C)c2)n1C [Compound 1-71, {3-[4-(2,3-Dimethyl-3H-imidazol-4-yl)-2-((4S,5R)-4-methyl-2-oxo-5-phenyl-oxazolidin-3-ylmethyl)-phenoxy]-phenyl}-acetic acid] | 300 to 1000 nM | 300 to 1000 nM
COc1ccc(CC(=O)O)cc1Oc1ccc(-c2cnn(C)c2)cc1CN1CCOC1=O [Compound 1-96, {4-Methoxy-3-[4-(1-methyl-1H-pyrazol-4-yl)-2-(2-oxo-oxazolidin-3-ylmethyl)-phenoxy]-phenyl}-acetic acid] | < 300 nM | > 1000 nM
C[C@H]1[C@@H](c2ccccc2)OC(=O)N1Cc1cc(-c2nccn2C)ccc1Oc1cccc(CC(=O)O)c1 [Compound 1-73, {3-[4-(1-Methyl-1H-imidazol-2-yl)-2-((4S,5R)-4-methyl-2-oxo-5-phenyl-oxazolidin-3-ylmethyl)-phenoxy]-phenyl}-acetic acid] | 300 to 1000 nM | 300 to 1000 nM
C[C@H]1[C@@H](c2ccccc2)OC(=O)N1Cc1cc(-c2ccc(C(N)=O)cn2)ccc1Oc1cccc(CC(=O)O)c1 [Compound 1-68, {3-[4-(5-Carbamoyl-pyridin-2-yl)-2-((4S,5R)-4-methyl-2-oxo-5-phenyl-oxazolidin-3-ylmethyl)-phenoxy]-phenyl}-acetic acid] | 300 to 1000 nM | < 300 nM
COc1ccc(CC(=O)O)cc1Oc1ccc(N2CCOCC2)cc1CN1CCOC1=O [Compound 1-90, {4-Methoxy-3-[4-morpholin-4-yl-2-(2-oxo-oxazolidin-3-ylmethyl)-phenoxy]-phenyl}-acetic acid] | > 1000 nM | > 1000 nM
Cc1nc(-c2ccc(Oc3cccc(CC(=O)O)c3)c(CN3C(=O)O[C@H](c4ccccc4)[C@@H]3C)c2)cn1C [Compound 1-70, {3-[4-(1,2-Dimethyl-1H-imidazol-4-yl)-2-((4S,5R)-4-methyl-2-oxo-5-phenyl-oxazolidin-3-ylmethyl)-phenoxy]-phenyl}-acetic acid] | < 300 nM | > 1000 nM
O=C(O)Cc1cc(Oc2ccc(C(F)(F)F)cc2CN2CCOC2=O)ccc1Br [Compound 1-12, {2-Bromo-5-[2-(2-oxo-oxazolidin-3-ylmethyl)-4-trifluoromethyl-phenoxy]-phenyl}-acetic acid] | > 1000 nM | 

The next lines start with the values.

IC50 (human DP2 receptor) | IC50 (human DP1 receptor) | Structure (SMILES)
< 300 nM |  | COc1ccc(CC(=O)O)cc1Oc1ccc(NC(=O)C(C)C)cc1CN1CCOC1=O [Compound 1-103, {3-[4-Isobutyrylamino-2-(2-oxo-oxazolidin-3-ylmethyl)-phenoxy]-4-methoxy-phenyl}-acetic acid]
< 300 nM | > 1000 nM | COc1ccc(CC(=O)O)cc1Oc1ccc(NC(=O)c2cc(C(F)(F)F)ccc2F)cc1CN1CCOC1=O [Compound 1-98, {3-[4-(2-Fluoro-5-trifluoromethyl-benzoylamino)-2-(2-oxo-oxazolidin-3-ylmethyl)-phenoxy]-4-methoxy-phenyl}-acetic acid]
< 300 nM |  | COc1ccc(CC(=O)O)cc1Oc1ccc(NC(=O)Cc2ccccc2)cc1CN1CCOC1=O [Compound 1-101, {4-Methoxy-3-[2-(2-oxo-oxazolidin-3-ylmethyl)-4-phenylacetylamino-phenoxy]-phenyl}-acetic acid]
> 1000 nM |  | COc1ccc(CC(=O)O)cc1Oc1ccc(NC(=O)c2cccnc2)cc1CN1CCOC1=O [Compound 1-105, (4-Methoxy-3-{2-(2-oxo-oxazolidin-3-ylmethyl)-4-[(pyridine-3-carbonyl)-amino]-phenoxy}-phenyl)-acetic acid]
< 300 nM |  | COc1ccc(CC(=O)O)cc1Oc1ccc(NC(=O)C(C)(C)C)cc1CN1CCOC1=O [Compound 1-100, {3-[4-(2,2-Dimethyl-propionylamino)-2-(2-oxo-oxazolidin-3-ylmethyl)-phenoxy]-4-methoxy-phenyl}-acetic acid]
< 300 nM | > 1000 nM | COc1ccc(CC(=O)O)cc1Oc1ccc(NS(=O)(=O)c2ccc(Cl)cc2)cc1CN1CCOC1=O [Compound 1-99, {3-[4-(4-Chloro-benzenesulfonylamino)-2-(2-oxo-oxazolidin-3-ylmethyl)-phenoxy]-4-methoxy-phenyl}-acetic acid]
> 1000 nM | > 1000 nM | COc1ccc(CC(=O)O)cc1Oc1ccc(Br)cc1CN1CCN(C)C1=O [Compound 3-4, {3-[4-Bromo-2-(3-methyl-2-oxo-imidazolidin-1-ylmethyl)-phenoxy]-4-methoxy-phenyl}-acetic acid]
< 300 nM |  | COc1ccc(CC(=O)O)cc1Oc1ccc(NC(=O)C2CCCCC2)cc1CN1CCOC1=O [Compound 1-102, {3-[4-(Cyclohexanecarbonyl-amino)-2-(2-oxo-oxazolidin-3-ylmethyl)-phenoxy]-4-methoxy-phenyl}-acetic acid]
< 300 nM |  | COc1ccc(CC(=O)O)cc1Oc1ccc(NC(=O)NCc2ccccc2)cc1CN1CCOC1=O [Compound 1-108, {3-[4-(3-Benzyl-ureido)-2-(2-oxo-oxazolidin-3-ylmethyl)-phenoxy]-4-methoxy-phenyl}-acetic acid]
< 300 nM |  | COc1ccc(CC(=O)O)cc1Oc1ccc(NC(=O)COc2ccccc2)cc1CN1CCOC1=O [Compound 1-106, {4-Methoxy-3-[2-(2-oxo-oxazolidin-3-ylmethyl)-4-(2-phenoxy-acetylamino)-phenoxy]-phenyl}-acetic acid]
< 300 nM |  | COc1ccc(CC(=O)O)cc1Oc1ccc(NC(=O)c2ccncc2)cc1CN1CCOC1=O [Compound 1-104, (4-Methoxy-3-{2-(2-oxo-oxazolidin-3-ylmethyl)-4-[(pyridine-4-carbonyl)-amino]-phenoxy}-phenyl)-acetic acid]
300 to 1000 nM |  | COCC(=O)Nc1ccc(Oc2cc(CC(=O)O)ccc2OC)c(CN2CCOC2=O)c1 [Compound 1-107, {4-Methoxy-3-[4-(2-methoxy-acetylamino)-2-(2-oxo-oxazolidin-3-ylmethyl)-phenoxy]-phenyl}-acetic acid]
